Laboratory results: patent publication US12508323B2, “Method of treatment of colorectal, breast and lung cancer with metal containing immune agonist complexes” (HANGZHOU XINGAO BIOTECHNOLOGY CO., LTD., priority 2020, dated 2025)

Key:
[1] = test system: colorectal cancer cell line CT26; experiment: Subcutaneous transplantation tumor model, CT26 in BALB/C mice; type: in vivo; details: i.p. 10 mg/kg (nanobody 200 μg/mouse) once a day for 21 days
Protocol: (§1) Specific pathogen free (SPF)-grade BALB/C and C57BL/6 male mice, aged 7-8 weeks and weighing 20-22 g, were purchased from Shanghai Slac Laboratory Animal Co., Ltd (Laboratory animal quality certificate number: SCXK (Shanghai)2007-0005.
(§2) Mice were injected intraperitoneally with the immune agonist or complex with a dose of 10 mg/kg, or each injected intraperitoneally with 200 μg of the nanobody.
(§3) Administration route: intraperitoneal injection.
(§4) Frequency: once a day for consecutive 21 days.
(§5) Cancer cells were cultured, passaged, collected at the logarithmic phase of cells, and prepared into a cell suspension at a concentration of (1.0×10^7) per ml. Mice were injected with 0.2 ml of the cell suspension at the axilla of the right forelimb (cell number 2.0×10^6 cells/each), and were tumorigenic in about 8 days. These mice were randomly divided into 10 groups equally, namely, group A: negative control group (saline group), group B: positive control (cGAMP) group (dose: 10 mg/kg), group C: MncGAMP group (dose: 10 mg/kg), group D: anti-PD-L1 nanobody group, group E: anti-CD47 nanobody group, group F: anti-TfR1 nanobody group, group G: complex V group (dose: 10 mg/kg), group H: complex VI group (dose: 10 mg/kg), group I: complex IX group (dose: 10 mg/kg), and group J: complex VIII group (10 mg/kg). […]
(§6) The data were expressed as ×±s and processed by SPSS10.0 software. […]

[2] = test system: lung cancer Lewis tumor line LL/2; experiment: Subcutaneous transplantation tumor model, LL/2 in C57BL/6 mice; type: in vivo; details: i.p. 10 mg/kg (nanobody 200 μg/mouse) once a day for 21 days
Protocol: as §1, §2, §3, §4, §5, §6

[3] = test system: breast cancer cell line 4T1; experiment: Subcutaneous transplantation tumor model, 4T1 in BALB/C mice; type: in vivo; details: i.p. 10 mg/kg (nanobody 200 μg/mouse) once a day for 21 days
Protocol: as §1, §2, §3, §4, §5, §6

[4] = test system: dendritic cell DCs and T cells; experiment: Activation of immune cells (flow cytometry of spleen and lung cells); type: in vivo, mice; details: 14 days after immunization, mouse spleen and lung tissues
Protocol: Mice were raised, immunized with virus infection, and subjected to blood collection, as the same as Example 3. Isotype control nanobody was purchased from eBiosciences; antibody magnetic beads were purchased from Militeny Biotech; and flow cytometer was purchased from BD company. 14 days after immunization, mouse spleen and lung tissues were taken, ground and pounded separately, filtered with a 40-μm filter, and centrifuged at 1000 rpm for 10 min to separate unlysed immune cells. The DC cells (CD40\CD80\CD86\MHCII), T cells and (CD8+) cells were separated by the antibody magnetic beads, and added with the corresponding FAC nanobody (diluted with FACS buffer). As a negative control, the isotype control nanobody was added into the DC cells followed by incubation for 1 h, centrifugation, and rinsing with PBS. After that, the samples were analyzed by the flow cytometry to select the appropriate cells for determination of fluorescence intensity (MFI), and the results were shown in Table 8.

amyloid plaques = experiment: Thioflavin S staining of brain amyloid plaques in AD mice; type: in vivo; details: 10 mg/kg i.p., 60 days of administration
Protocol: Seven groups of AD mice in the above examples were tested in view of reduction of amyloid plaques in the brains of AD mice after 60 days of administration. The experiment was a thioflavin S staining experiment, and the experimental procedures were described below. 60 days after drug administration, brain tissue of mice was taken, fixed, embedded with paraffin, sectioned, de-waxed with xylene, dehydrated with ethanol gradient, and rinsed with TBS solution three times. After that, 0.3% thioflavin S (dissolved in 50% ethanol) was dropped on the tissue followed by incubation for 10 min at room temperature, rinsing with 50% ethanol three times, rinsing with TBS solution, drying in the shade, and sealing. Then the issue was examined by laser confocal microscopy (Leica, Germany) to detect the changes in the amount of amyloid plaque deposition in the brain of AD mice.

[5] = vs negative control tumor weight

With `Nc1nc(=O)c2ncn(C3OC4COP(=O)(O)OC5C(COP(=O)(O)OC3C4O)OC(n3cnc4c(N)ncnc43)C5O)c2[nH]1` (stereo not shown) [cGAMP, 2′3′-cGAMP] the “Average tumor weight” value ([1]; n = 10, mean ± SD) was 0.784 ± 0.135 g, the “Average tumor inhibition rate (%)” value [1, 5] was 65.0% and the “Average tumor weight” value ([2]; n = 10, mean ± SD) was 1.138 ± 0.127 g. For the same molecule, the “Average tumor inhibition rate (%)” value [2, 5] was 60.0%, the “Average tumor weight” value ([3]; n = 10, mean ± SD) was 0.862 ± 0.156 g and the “Average tumor inhibition rate (%)” value [3, 5] was 61.9%. The “CD8 cells (%)” value [4] was 2.3 ± 0.2%, the “CD40 cells (%)” value [4] was 122.6% and the “CD80 cells (%)” value [4] was 115.5%. For the same molecule, the “CD86 cells (%)” value [4] was 18.3%, the “MHCII cells (%)” value [4] was 218.4% and the “T cells (%)” value [4] was 0.3 ± 0.2%. The “Average count points of fluorescence intensity of amyloid plaques in brain tissues of AD mice (field of view area)” value (amyloid plaques) was 1800 ± 160.
